The target in one assay is HDAC6 (Homo sapiens (Human), UniProt Q9UBN7). In words: biochemical.
The test system of another assay is KARN cells (Jurkat 2C4). The experiment in a line: cells. To be noted: Homo sapiens.
For assay [1], the target named is human HDAC3/SMRT heterodimer (Homo sapiens (Human), UniProt O15379). In words: biochemical.
A further assay has as its target human HDAC8 (Homo sapiens (Human), UniProt Q9BY41). The experiment in a line: HDAC8 inhibition assay (modified FLUOR DE LYS, 384-well). To be noted: […] nM enzyme, 200 μM substrate BML-KI178, 3 h pre-incubation; read-out: HDAC8 IC50. The format is biochemical.
Another assay has as its target human HDAC1 (Homo sapiens (Human), UniProt Q13547). The experiment in a line: biochemical.
For another assay, the target named is human HDAC2 (Homo sapiens (Human), UniProt Q92769). In words: HDAC2 inhibition assay (modified FLUOR DE LYS, 384-well). The class given is biochemical. To be noted: […] nM enzyme, 40 μM substrate BML-KI104, 3 h pre-incubation; read-out: HDAC2 IC50.
Sequence of human HDAC2 (Q92769 whole entry): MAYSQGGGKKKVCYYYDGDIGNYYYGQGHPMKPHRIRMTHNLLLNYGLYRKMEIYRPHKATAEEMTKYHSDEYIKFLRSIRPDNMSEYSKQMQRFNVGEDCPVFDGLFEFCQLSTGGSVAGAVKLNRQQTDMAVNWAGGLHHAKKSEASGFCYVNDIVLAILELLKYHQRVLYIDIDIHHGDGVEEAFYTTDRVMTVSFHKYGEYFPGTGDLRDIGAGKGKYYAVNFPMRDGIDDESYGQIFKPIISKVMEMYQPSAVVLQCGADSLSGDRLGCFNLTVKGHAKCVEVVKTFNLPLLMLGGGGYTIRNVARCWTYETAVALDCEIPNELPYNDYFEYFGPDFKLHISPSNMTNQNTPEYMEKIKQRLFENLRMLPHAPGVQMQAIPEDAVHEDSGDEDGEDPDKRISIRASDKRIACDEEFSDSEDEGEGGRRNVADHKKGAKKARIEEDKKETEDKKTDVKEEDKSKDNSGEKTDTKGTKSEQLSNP
[2] abbreviates: read-out: Karn EC50 nM 0.1% NHS, 0.1% normal human serum, luciferase induction, 2 μM SAHA = 100%.
Where [3] appears, read: read-out: Karn EC50 nM 5% NHS, 5% normal human serum, luciferase induction, 2 μM SAHA = 100%.

pIC50: −log10 of the molar value. Where two headings read alike, the source gives them in different places.

This note sets out measurements from patent US12331044B2, “Inhibitors of histone deacetylase useful for the treatment or prevention of HIV infection” (Merck Sharp & Dohme LLC, priority 2018, dated 2025).

Broadly, the pIC50 is the negative decadic logarithm of the IC50, by convention in mol/L. A lower pIC50 goes with a high IC50. The EC50 is the midpoint of the concentration-response curve. By IC50 is commonly meant the concentration at which inhibition is half-maximal.

Sequence of human HDAC1 (Q13547 whole entry): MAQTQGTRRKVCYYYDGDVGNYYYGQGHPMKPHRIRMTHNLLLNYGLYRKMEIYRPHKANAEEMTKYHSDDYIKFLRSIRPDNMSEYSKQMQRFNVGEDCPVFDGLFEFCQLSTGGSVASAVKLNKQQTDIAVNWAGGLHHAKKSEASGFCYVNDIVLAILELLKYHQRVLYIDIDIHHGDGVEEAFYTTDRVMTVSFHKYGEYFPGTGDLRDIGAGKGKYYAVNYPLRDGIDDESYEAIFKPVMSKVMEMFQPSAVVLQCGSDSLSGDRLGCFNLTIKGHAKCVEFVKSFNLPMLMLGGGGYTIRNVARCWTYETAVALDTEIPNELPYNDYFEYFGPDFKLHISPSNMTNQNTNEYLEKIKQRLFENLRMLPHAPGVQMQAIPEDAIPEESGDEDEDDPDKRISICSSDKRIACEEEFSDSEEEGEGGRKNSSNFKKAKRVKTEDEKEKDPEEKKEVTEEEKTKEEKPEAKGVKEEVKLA
Sequence of HDAC6 (Q9UBN7 whole entry): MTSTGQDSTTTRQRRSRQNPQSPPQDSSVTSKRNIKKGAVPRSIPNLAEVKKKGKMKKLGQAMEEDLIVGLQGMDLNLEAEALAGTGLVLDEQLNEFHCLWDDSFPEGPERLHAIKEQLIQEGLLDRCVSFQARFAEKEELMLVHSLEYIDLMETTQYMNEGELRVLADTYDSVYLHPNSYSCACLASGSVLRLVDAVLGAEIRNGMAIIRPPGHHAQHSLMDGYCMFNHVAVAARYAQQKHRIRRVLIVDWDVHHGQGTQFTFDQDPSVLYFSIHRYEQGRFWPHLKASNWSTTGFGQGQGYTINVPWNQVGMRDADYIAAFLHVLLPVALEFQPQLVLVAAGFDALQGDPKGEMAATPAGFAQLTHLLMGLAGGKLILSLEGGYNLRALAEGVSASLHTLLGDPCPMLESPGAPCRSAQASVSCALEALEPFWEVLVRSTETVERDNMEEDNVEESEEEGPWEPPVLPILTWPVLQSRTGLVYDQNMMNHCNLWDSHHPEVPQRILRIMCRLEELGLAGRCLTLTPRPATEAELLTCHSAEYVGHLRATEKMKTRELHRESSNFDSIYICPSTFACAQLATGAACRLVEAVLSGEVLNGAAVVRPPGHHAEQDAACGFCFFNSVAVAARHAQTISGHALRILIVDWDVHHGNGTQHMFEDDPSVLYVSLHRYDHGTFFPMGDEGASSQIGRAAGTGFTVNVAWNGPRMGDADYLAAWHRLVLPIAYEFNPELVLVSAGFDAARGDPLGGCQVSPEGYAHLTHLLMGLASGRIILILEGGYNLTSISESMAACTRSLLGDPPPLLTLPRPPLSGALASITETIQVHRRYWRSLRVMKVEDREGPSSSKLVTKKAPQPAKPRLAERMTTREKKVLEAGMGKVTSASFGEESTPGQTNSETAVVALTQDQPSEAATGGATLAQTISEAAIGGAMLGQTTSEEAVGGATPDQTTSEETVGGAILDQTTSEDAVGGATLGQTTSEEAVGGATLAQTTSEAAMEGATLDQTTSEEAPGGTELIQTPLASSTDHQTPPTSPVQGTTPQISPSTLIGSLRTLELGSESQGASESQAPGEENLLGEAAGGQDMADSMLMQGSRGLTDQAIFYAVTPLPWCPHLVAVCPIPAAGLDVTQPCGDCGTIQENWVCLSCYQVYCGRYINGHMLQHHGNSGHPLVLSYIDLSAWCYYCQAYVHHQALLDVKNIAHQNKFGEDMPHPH
Sequence of human HDAC8 (Q9BY41 whole entry): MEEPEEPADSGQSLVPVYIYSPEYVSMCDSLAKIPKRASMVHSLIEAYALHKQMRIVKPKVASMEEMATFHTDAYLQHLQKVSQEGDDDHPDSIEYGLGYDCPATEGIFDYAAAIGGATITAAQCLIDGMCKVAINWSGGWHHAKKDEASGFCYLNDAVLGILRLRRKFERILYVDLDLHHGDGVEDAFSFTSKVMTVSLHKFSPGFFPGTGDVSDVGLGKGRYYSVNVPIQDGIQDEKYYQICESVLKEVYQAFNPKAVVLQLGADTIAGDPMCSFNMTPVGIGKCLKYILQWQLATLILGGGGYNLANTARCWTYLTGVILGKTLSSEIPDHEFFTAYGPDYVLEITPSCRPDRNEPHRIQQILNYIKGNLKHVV
Sequence of human HDAC3/SMRT heterodimer (O15379 whole entry): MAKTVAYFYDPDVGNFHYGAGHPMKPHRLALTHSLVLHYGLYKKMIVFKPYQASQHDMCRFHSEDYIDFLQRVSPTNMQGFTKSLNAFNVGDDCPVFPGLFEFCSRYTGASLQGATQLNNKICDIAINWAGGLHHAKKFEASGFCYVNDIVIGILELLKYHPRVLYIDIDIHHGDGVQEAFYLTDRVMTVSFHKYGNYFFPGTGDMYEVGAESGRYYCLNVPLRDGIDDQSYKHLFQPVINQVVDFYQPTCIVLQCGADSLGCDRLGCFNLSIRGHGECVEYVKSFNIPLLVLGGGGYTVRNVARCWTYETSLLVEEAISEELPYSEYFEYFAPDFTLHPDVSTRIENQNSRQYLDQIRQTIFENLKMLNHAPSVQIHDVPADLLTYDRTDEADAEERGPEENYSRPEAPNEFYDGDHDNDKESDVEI
Sequence of human HDAC3/SMRT heterodimer (Q9Y618 1-899 partner): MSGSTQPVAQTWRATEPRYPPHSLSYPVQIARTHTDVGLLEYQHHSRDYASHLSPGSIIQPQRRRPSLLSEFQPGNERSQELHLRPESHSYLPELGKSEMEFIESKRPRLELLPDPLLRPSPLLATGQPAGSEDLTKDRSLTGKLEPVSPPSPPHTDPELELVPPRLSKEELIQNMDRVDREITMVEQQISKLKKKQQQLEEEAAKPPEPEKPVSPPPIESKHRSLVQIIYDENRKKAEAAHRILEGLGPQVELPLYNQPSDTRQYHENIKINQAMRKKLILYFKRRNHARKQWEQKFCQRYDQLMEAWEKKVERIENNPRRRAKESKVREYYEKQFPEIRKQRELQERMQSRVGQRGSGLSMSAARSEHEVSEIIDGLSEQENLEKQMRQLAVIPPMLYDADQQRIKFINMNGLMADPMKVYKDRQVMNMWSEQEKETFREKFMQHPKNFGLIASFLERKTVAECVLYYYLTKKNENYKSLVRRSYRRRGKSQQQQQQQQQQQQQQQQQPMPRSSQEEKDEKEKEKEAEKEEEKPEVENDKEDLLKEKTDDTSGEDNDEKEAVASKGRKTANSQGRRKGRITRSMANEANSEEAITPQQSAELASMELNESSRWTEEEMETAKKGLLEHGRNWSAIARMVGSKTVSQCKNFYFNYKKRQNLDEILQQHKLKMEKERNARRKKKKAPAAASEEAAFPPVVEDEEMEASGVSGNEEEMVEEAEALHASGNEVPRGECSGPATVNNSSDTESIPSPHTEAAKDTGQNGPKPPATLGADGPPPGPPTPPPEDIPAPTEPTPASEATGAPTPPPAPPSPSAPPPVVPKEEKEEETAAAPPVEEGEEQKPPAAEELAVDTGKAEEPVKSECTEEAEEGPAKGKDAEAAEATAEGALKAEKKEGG
Experimental for KARN cells (Jurkat 2C4): KARN Assay Cell Maintenance
KARN cells (Jurkat 2C4) were licensed from the laboratory of Dr. John Karn, Case Western Reserve University, School of Medicine. […] An atmosphere of 5% CO2 and 90% humidity was used for all culture work.
These flasks were returned to the incubator.
The cells were gently resuspended in assay media (30 ml) and pelleted again. […] The cells were counted using the ViCell (Beckman Coulter) and diluted as necessary. […] The plates were covered and returned to the incubator prior to compound addition.
The reference compounds, DMSO and SAHA were then added to the compound plate. […] The final high concentration for SAHA and the test compounds in the assays was 40 μM. The final DMSO concentration in all wells was 0.4%. The minimal induction reference compound used was DMSO and the maximal induction reference compound used was SAHA (2 μM final concentration in the assay).
Day 3: The luciferase detection reagent was prepared by transferring the contents of one bottle of Steady-Glo buffer to one bottle of Steady-Glo aubstrate (Steady-Glo Luciferase Assay System, Promega, catalog number E2520), followed by gently mixing until the substrate was thoroughly dissolved and the solution was equilibrated to room temperature. […] The Steady-Glo Reagent was added to the plates (30 μl/well), which were then covered with a black lid and incubated for 10 minutes at room temperature. The plates were then read for luminescence on an Envision (Perkin Elmer) using the ultrasensitive mode (US LUM), 0.1 counts per second and 384-well aperture. Luminescence counts in the DMSO reference wells were considered as 0% induction, while those in the 2 μM SAHA reference wells were considered as 100% induction. Dose response curves were plotted as test compound concentration (X-axis) vs. percent activation (Y-axis) using a 4-parameter fit based on the Levenberg-Marquardt algorithm.

Regarding `COc1cc2ncccc2cc1-c1c[nH]c([C@@H](N)CCCCCC(=O)c2ncco2)n1` [Example 23, (S)-7-amino-7-(4-(7-methoxyquinolin-6-yl)-1H-imidazol-2-yl)-1-(oxazol-2-yl)heptan-1-one], the negative-log IC50 (pIC50) against HDAC6 is 4.51; in assay [1], 8.74; against human HDAC1, 8.72. The concentration for a half-maximal effect (EC50) was 100 nM in the assay with KARN cells (Jurkat 2C4) (setting [2]) and 210 nM in the assay on KARN cells (Jurkat 2C4) (setting [3]). In addition, the IC50 worked out at 660 nM at human HDAC8 and 9.5 nM at human HDAC2.

Regarding `COc1nc(C2CC2)ccc1-c1c[nH]c([C@@H](N)CCCCCC(=O)c2ncco2)n1` [Example 24, (S)-7-amino-7-(4-(6-cyclopropyl-2-methoxypyridin-3-yl)-1H-imidazol-2-yl)-1-(oxazol-2-yl)heptan-1-one], the results for the negative logarithm of the IC50 (pIC50) (against HDAC6; in assay [1]; at human HDAC1) were ≤ 4.35, 8.46 and 8.15, respectively. Moreover, the half-maximal effective concentration (EC50) amounted to 1400 nM with KARN cells (Jurkat 2C4) (setting [2]) and 2000 nM in the assay on KARN cells (Jurkat 2C4) (setting [3]). The IC50 at human HDAC8 turned out to be 3200 nM; on human HDAC2 it was 39 nM.

Regarding `N[C@@H](CCCCCC(=O)c1ncco1)c1[nH]c(-c2ccc(F)cc2)nc1Cl` [Example 25, (S)-7-amino-7-(4-chloro-2-(4-fluorophenyl)-1H-imidazol-5-yl)-1-(oxazol-2-yl)heptan-1-one], the negative logarithm of the IC50 (pIC50) against HDAC6 is ≤ 4.35; in assay [1] it was 9.42; against human HDAC1 it was 9.18. The 50% effective concentration (EC50) in the assay with KARN cells (Jurkat 2C4) (setting [2]) worked out at 340 nM; in the assay with KARN cells (Jurkat 2C4) (setting [3]), 650 nM. Besides, the figures for the 50% inhibitory concentration (IC50) at human HDAC8 and on human HDAC2 were 6300 nM and 5 nM, respectively.

As to `Cc1ccc2cc(-c3cnc(C(N)CCCCCC(=O)c4ncco4)o3)ccc2n1` (stereo not drawn) [Example 26, 7-amino-7-(5-(2-methylquinolin-6-yl)oxazol-2-yl)-1-(oxazol-2-yl)heptan-1-one], the values for the pIC50 (on HDAC6; in assay [1]; at human HDAC1) were ≤ 4.35, 7.89 and 7.96, respectively. The concentration for a half-maximal effect (EC50) was 6200 nM in the assay on KARN cells (Jurkat 2C4) (setting [2]) and 6900 nM in the assay on KARN cells (Jurkat 2C4) (setting [3]). Besides, the values for the concentration for half-maximal inhibition (IC50) on human HDAC8 and on human HDAC2 were 8000 nM and 35 nM, respectively.

Regarding `COc1ncccc1-c1cnc([C@@H](N)CCCCCC(=O)c2ncco2)o1` [Example 28, (S)-7-amino-7-(5-(2-methoxypyridin-3-yl)oxazol-2-yl)-1-(oxazol-2-yl)heptan-1-one], the negative-log IC50 (pIC50) is 6.18 on HDAC6, 8.03 in assay [1] and 8.05 against human HDAC1. Besides, the 50% effective concentration (EC50) in the assay on KARN cells (Jurkat 2C4) (setting [2]) turned out to be 1900 nM; with KARN cells (Jurkat 2C4) (setting [3]), 2000 nM. For the same molecule, the results for the IC50 on human HDAC8 and at human HDAC2 were > 900 nM and 32 nM, respectively.

Regarding `Cc1ccc2cc(-c3cn(C)c([C@@H](N)CCCCCC(=O)c4ncco4)n3)ccc2n1` [Example 29, (S)-7-amino-7-(1-methyl-4-(2-methylquinolin-6-yl)-1H-imidazol-2-yl)-1-(oxazol-2-yl)heptan-1-one], the pIC50 against HDAC6 is 5.29; in assay [1], 7.74; against human HDAC1, 7.82. In addition, the half-maximal effective concentration (EC50) with KARN cells (Jurkat 2C4) (setting [2]) and in the assay on KARN cells (Jurkat 2C4) (setting [3]) was 1800 nM in each case. Besides, the concentration for half-maximal inhibition (IC50) at human HDAC8 was 20000 nM; on human HDAC2, 63 nM.

Turning to `COc1cc2nc(C)ccc2cc1-c1c[nH]c([C@@H](N)CCCCCC(=O)c2ccon2)n1` [Example 31, (S)-7-amino-1-(isoxazol-3-yl)-7-(4-(7-methoxy-2-methylquinolin-6-yl)-1H-imidazol-2-yl)heptan-1-one], the pIC50 against HDAC6 is 4.66; in assay [1], 8.74; at human HDAC1 it was 8.85. The EC50 in the assay on KARN cells (Jurkat 2C4) (setting [2]) came out at 18 nM; with KARN cells (Jurkat 2C4) (setting [3]) it was 26 nM. Further, the 50% inhibitory concentration (IC50) at human HDAC8 stood at 100 nM; at human HDAC2, 4.3 nM.

Turning to `COc1ncccc1-c1c[nH]c([C@@H](N)CCCCCC(=O)c2ccon2)n1` [Example 33, (S)-7-amino-1-(isoxazol-3-yl)-7-(4-(2-methoxypyridin-3-yl)-1H-imidazol-2-yl)heptan-1-one], the pIC50 on HDAC6 was ≤ 4.35; in assay [1] it was 9.08; against human HDAC1 it was 9.14. Further, the values for the concentration giving a half-maximal response (EC50) in the assay on KARN cells (Jurkat 2C4) (setting [2]) and in the assay with KARN cells (Jurkat 2C4) (setting [3]) were 61 nM and 84 nM, respectively. Moreover, the IC50 at human HDAC8 was determined as 110 nM; at human HDAC2, 4.3 nM.

As for `O=C1CC[C@](CCCCCC(=O)c2ncco2)(c2ncc(-c3ccc(F)cc3)[nH]2)N1` [Example 65, (R)-5-(5-(4-fluorophenyl)-1H-imidazol-2-yl)-5-(6-(oxazol-2-yl)-6-oxohexyl)pyrrolidin-2-one], the negative-log IC50 (pIC50) was ≤ 4.35 on HDAC6, 8.66 in assay [1] and 8.66 against human HDAC1. Besides, the concentration for a half-maximal effect (EC50) in the assay on KARN cells (Jurkat 2C4) (setting [2]) was 470 nM; in the assay on KARN cells (Jurkat 2C4) (setting [3]) it was 630 nM. For the same molecule, the IC50 on human HDAC8 amounted to 3100 nM; at human HDAC2 it was 11 nM.

In the case of `O=C1NC(CCCCCC(=O)c2ncco2)(c2nc(-c3ccc(F)cc3)c[nH]2)CO1` (stereo not drawn) [Example 66, 4-(4-(4-fluorophenyl)-1H-imidazol-2-yl)-4-(6-(oxazol-2-yl)-6-oxohexyl)oxazolidin-2-one], the values for the pIC50 (at HDAC6; in assay [1]; at human HDAC1) were ≤ 4.35, 8.51 and 8.36, respectively. Besides, the EC50 with KARN cells (Jurkat 2C4) (setting [2]) amounted to 380 nM; with KARN cells (Jurkat 2C4) (setting [3]), 530 nM. Further, the IC50 on human HDAC8 is 4400 nM; on human HDAC2 it was 15 nM.

In the case of `O=C1CC[C@@](CCCCCC(=O)c2ccon2)(c2nc(-c3ccc(-c4ncco4)cc3F)c[nH]2)N1` [Example 67, (S)-5-(4-(2-fluoro-4-(oxazol-2-yl)phenyl)-1H-imidazol-2-yl)-5-(6-(isoxazol-3-yl)-6-oxohexyl)pyrrolidin-2-one], the negative-log IC50 (pIC50) on HDAC6 is ≤ 4.35; in assay [1] it was 8.82; against human HDAC1, 8.74. Further, the half-maximal effective concentration (EC50) in the assay on KARN cells (Jurkat 2C4) (setting [2]) stood at 51 nM; in the assay with KARN cells (Jurkat 2C4) (setting [3]), 95 nM. The figures for the IC50 on human HDAC8 and on human HDAC2 were 400 nM and 4.3 nM, respectively.

As to `O=C1CC[C@@](CCCCCC(=O)c2ccon2)(c2nc(-c3ccc(C4CC4)cc3F)c[nH]2)N1` [Example 68, (S)-5-(4-(4-cyclopropyl-2-fluorophenyl)-1H-imidazol-2-yl)-5-(6-(isoxazol-3-yl)-6-oxohexyl)pyrrolidin-2-one], the values for the pIC50 (against HDAC6; in assay [1]; against human HDAC1) were < 6.05, 9.26 and 9.00, respectively. For the same molecule, the EC50 with KARN cells (Jurkat 2C4) (setting [2]) was found to be 34 nM; with KARN cells (Jurkat 2C4) (setting [3]), 110 nM. The IC50 at human HDAC8 was 230 nM; on human HDAC2, 5 nM.

Regarding `O=C1CC[C@@](CCCCCC(=O)c2ccon2)(c2nc(-c3ccccc3F)c[nH]2)N1` [Example 69, (S)-5-(4-(2-fluorophenyl)-1H-imidazol-2-yl)-5-(6-(isoxazol-3-yl)-6-oxohexyl)pyrrolidin-2-one], the values for the negative logarithm of the IC50 (pIC50) (at HDAC6; in assay [1]; at human HDAC1) were < 6.05, 9.10 and 9.04, respectively. Also, the EC50 in the assay with KARN cells (Jurkat 2C4) (setting [2]) was 96 nM; in the assay on KARN cells (Jurkat 2C4) (setting [3]) it was 260 nM. The figures for the IC50 on human HDAC8 and at human HDAC2 were 210 nM and 4.2 nM, respectively.

On to `COc1cc2nc(C)ccc2cc1-c1cnc([C@@]2(CCCCCC(=O)c3ccon3)CCC(=O)N2)[nH]1` [Example 70, (R)-5-(6-(isoxazol-3-yl)-6-oxohexyl)-5-(5-(7-methoxy-2-methylquinolin-6-yl)-1H-imidazol-2-yl)pyrrolidin-2-one], for which the pIC50 at HDAC6 was < 6.05; in assay [1], 8.96; against human HDAC1 it was 9.11. The values for the 50% effective concentration (EC50) in the assay on KARN cells (Jurkat 2C4) (setting [2]) and in the assay on KARN cells (Jurkat 2C4) (setting [3]) were 31 nM and 110 nM, respectively. The figures for the concentration for half-maximal inhibition (IC50) at human HDAC8 and at human HDAC2 were 260 nM and 3.5 nM, respectively.

As to `COc1ncccc1-c1c[nH]c([C@]2(CCCCCC(=O)c3ccon3)CCCC(=O)N2)n1` [Example 71, (S)-6-(6-(isoxazol-3-yl)-6-oxohexyl)-6-(4-(2-methoxypyridin-3-yl)-1H-imidazol-2-yl)piperidin-2-one], the values for the pIC50 (against HDAC6; in assay [1]; against human HDAC1) were < 6.05, 8.74 and 8.92, respectively. For the same molecule, the figures for the EC50 with KARN cells (Jurkat 2C4) (setting [2]) and with KARN cells (Jurkat 2C4) (setting [3]) were 330 nM and 490 nM, respectively. Moreover, the IC50 came to 690 nM at human HDAC8 and 6.1 nM at human HDAC2.

For `O=C1CCCC[C@@](CCCCCC(=O)c2ccon2)(c2nc(-c3ccccc3F)c[nH]2)N1` [Example 72, (S)-7-(4-(2-fluorophenyl)-1H-imidazol-2-yl)-7-(6-(isoxazol-3-yl)-6-oxohexyl)azepan-2-one], the negative-log IC50 (pIC50) is < 6.05 at HDAC6, 7.77 in assay [1] and 7.77 at human HDAC1. Besides, the values for the 50% effective concentration (EC50) in the assay with KARN cells (Jurkat 2C4) (setting [2]) and in the assay with KARN cells (Jurkat 2C4) (setting [3]) were 650 nM and 1900 nM, respectively. Also, the IC50 on human HDAC8 is > 900 nM; on human HDAC2, 89 nM.

In the case of `COc1nc2ccccc2cc1-c1cnc(CCCCCCC(=O)c2ncco2)[nH]1` [Example 73, 7-(5-(2-methoxyquinolin-3-yl)-1H-imidazol-2-yl)-1-(oxazol-2-yl)heptan-1-one], the figures for the pIC50 (on HDAC6; in assay [1]; on human HDAC1) were 5.60, 8.38 and 8.48, respectively. The EC50 in the assay with KARN cells (Jurkat 2C4) (setting [2]) was 840 nM; with KARN cells (Jurkat 2C4) (setting [3]), 15 nM. Further, the results for the concentration for half-maximal inhibition (IC50) on human HDAC8 and at human HDAC2 were 3900 nM and 16 nM, respectively.

As for `CCN[C@@H](CCCCCC(=O)c1ncco1)c1ncc(-c2ccc3nc(C)ccc3c2)[nH]1` [Example 74, (S)-7-(ethylamino)-7-(5-(2-methylquinolin-6-yl)-1H-imidazol-2-yl)-1-(oxazol-2-yl)heptan-1-one], the pIC50 is ≤ 4.35 against HDAC6, 8.74 in assay [1] and 8.80 at human HDAC1. Moreover, the EC50 with KARN cells (Jurkat 2C4) (setting [2]) worked out at 140 nM; in the assay with KARN cells (Jurkat 2C4) (setting [3]), 200 nM. For the same molecule, the values for the IC50 on human HDAC8 and on human HDAC2 were 4500 nM and 5 nM, respectively.
